Where two headings read alike, the source gives them in different places.
Legend:
Assay type in all cases: cell-based, human
[1] = system: pERK in Mewo cells (NF1 LOF); test: Phospho-ERK inhibition (AlphaLISA), Mewo; settings: for Mewo pERK % Ymin: value in parentheses
Procedure: (§1) All cancer cell lines (A375, A101D, A2058, RKO, HT29 SK-MEL 30, IPC298, HepG2, HCT-116, Lovo, SWV620, SW480, NCI-H358, NCI-H2122, Calu-6, NCIH2087, NCIH1755, NCIH1666 and Mewo) were obtained from ATCC and cultured in RPMI-1640 medium (Gibco) supplemented with 5% heat inactivated fetal bovine serum (FBS, Wisent) at 37° C. under 5% CO2. Cells were maintained in T175 flasks (Greiner). They were passaged by removing the culture medium, washing once in 10 mL of room temperature Phosphate Buffered Saline (PBS; Wisent) and incubating at 37° C. with 2 mL of 0.05% Trypsin (Thermo-Fisher). Trypsin was then inactivated by adding complete growth medium and the cells were then replated in a T175 culture dish at the appropriate dilution. All cell lines were routinely tested for mycoplasma contamination. Tissue type and mutational status of each cell line can be found in Table B.
(§2) AlphaLISA® SureFire® Ultra™ p-ERK 1/2 (Thr202/Tyr204) analysis was conducted on cells plated in 100 μL of complete RPMI-1640 growth medium in 96-well flat-bottomed transparent dishes (Costar) at a density indicated in Table C. Cells were maintained overnight at 37° C. under 5% CO2 before treatment with compounds' dilution series for one hour. The cell density in cells/cm^2 corresponds to cell number divided by the area of one well of a 96-well plate ([…]).
(§3) In a dilution series 100 μL/well of test substance dilution prepared in complete RPMI-1640 growth media was added to the cells. The dilution series is selected so that ten concentrations cover a range from 10 μM to 0.33 nM. If necessary the initial concentration of 10 μM is increased to 100 μM or lowered to 1 μM (as in the case of A375 and H1666 cells, which are generally more sensitive to the compounds) and further dilution is carried out accordingly. The final concentration of DMSO in the assay is set at 0.5%.
(§4) After treatment, media was removed and cells were lysed in 50 μL of 1× AlphaScreen Ultra Lysis Buffer (Perkin Elmer). The AlphaLISA® SureFire® Ultra™ p-ERK 1/2 (Thr202/Tyr2O4) (PerkinElmer) reactions were performed with 5 μL of cell lysate according to the manufacturer's specifications in 384-well proxyplates (Perkin Elmer) followed by overnight incubation of the reactions at room temperature in a humidified chamber. After completion of the reactions, the signals were recorded on an EnVision plate reader (Perkin Elmer) using built in AlphaLISA® settings.
(§5) The effect of each compound dilution on the pERK signal was expressed in % inhibition and calculated as follows. An internal 100% inhibition control ([…] trametinib, cat #HY-10999; MedChem Express; CAS #871700-17-3) was included in each plate and used as a measure of pERK background. First, the value obtained for trametinib was subtracted from each data point. The average of DMSO (vehicle) controls (set as 0% inhibition) was established and used to calculate % inhibition: % inhibition=100*(1-((pERK signalcompound)/(pERK signalDMSO)))
(§6) The ability of each compound to inhibit pERK signal was expressed as an IC50 value obtained by plotting the inhibition values for each data point of a dilution series and fitting the obtained curves using a log(agonist) versus response-variable slope (four parameters) function using GraphPadPrism (V7.0) or Dotmatics Screening Ultra platform.
(§7) When present, paradoxical pERK induction is inferred from the negative % inhibition values observed in the pERK IC50 curves of a compound.

[2] = system: NCI-H358 cells (KRAS-G12C); test: Proliferation inhibition (CellTiter-Glo), NCI-H358; settings: NCI-H358, 3 days, read-out: NCI-H358 Prolif. EC50
Procedure: as §1
(§8) CellTiter-Glo® viability analysis was conducted on cells plated in 100 μL of complete RPMI-1640 growth medium in 96-well flat-bottomed white opaque plates (Greiner or Croning) at a density indicated in Table E (for each CCL, number of cells plated per well of a 96-well plate to perform the CellTiter-Glo® cell viability assay). The cell density in cells/cm^2 would correspond to cell number divided by the area of one well of a 96-well plate (0.32 cm^2). […]
(§9) After 3 days of incubation, the growth media were removed by aspiration and 60 μL of diluted CellTiter-Glo® reagent (10 μL CellTiter-Glo® reagent+50 μL of PBS) was added to each well. […] Luminescence signals were then acquired on a Synergy Neo2 plate reader (Biotek).
(§10) The effect of each compound dilution on the proliferation of cancer cell lines was expressed in % inhibition and calculated as follows. […]
as §6, with “proliferation” for “pERK signal”, “a EC50” for “an IC50”, “effect” for “inhibition”

SW480 cells (KRAS G12D) = test: Proliferation inhibition (CellTiter-Glo), SW480; settings: SW480, 3 days, read-out: SW480 Prolif. EC50
Procedure: as §1, §8, §9, §10
as §6, with “proliferation” for “pERK signal”, “a EC50” for “an IC50”, “effect” for “inhibition”

[3] = system: pERK in NCI-H358 cells (KRAS-G12C); test: Phospho-ERK inhibition (AlphaLISA), NCI-H358; settings: for IC50: NCI-H358; for NCI-H358 pERK % Ymin: NCI-H358, value in parentheses
Procedure: as §1, §2, §3, §4, §5, §6, §7

HepG2 cells (NRAS-Q61L) = test: Proliferation inhibition (CellTiter-Glo), HepG2; settings: HepG2, 3 days, read-out: HepG2 Prolif. EC50
Procedure: as §1, §8, §9, §10
as §6, with “proliferation” for “pERK signal”, “a EC50” for “an IC50”, “effect” for “inhibition”

Calu-6 cells (KRAS Q61K) = test: Proliferation inhibition (CellTiter-Glo), Calu-6; settings: Calu6, 3 days, read-out: Calu6 Prolif. EC50
Procedure: as §1, §8, §9, §10
as §6, with “proliferation” for “pERK signal”, “a EC50” for “an IC50”, “effect” for “inhibition”

Row | IC50 ([1]; Homo sapiens, MeWo) | EC50 ([2]; Homo sapiens, 72 h) | EC50 (SW480 cells (KRAS G12D); Homo sapiens, 72 h) | IC50 ([3]; Homo sapiens) | EC50 (HepG2 cells (NRAS-Q61L); Homo sapiens, 72 h) | EC50 (Calu-6 cells (KRAS Q61K); Homo sapiens, Calu-6, 72 h) | IC50 ([1]; Mewo) | EC50 [2] | EC50 (SW480 cells (KRAS G12D)) | IC50 [3] | EC50 (HepG2 cells (NRAS-Q61L)) | EC50 (Calu-6 cells (KRAS Q61K)) | Structure (SMILES) | Mewo pERK % Ymin ([1]; Mewo) | NCI-H358 pERK % Ymin [3]
1 | 30 to 300 nM | 300 to 3000 nM | 300 to 3000 nM | 30 to 300 nM | < 30 nM | < 30 nM | – | – | – | – | – | – | Cc1ccc2c(Nc3cccc(Cl)c3F)nccc2c1NC(=O)c1csc2c(N)ncnc12 [Belvarafenib, reference compound] | −116% | −122%
2 | – | – | – | – | – | – | 30 to 300 nM | < 30 nM | 300 to 3000 nM | 30 to 300 nM | < 30 nM | 300 to 3000 nM | Nc1cccc2c1ncn2-c1ccc2ncnc(Nc3c(F)ccc(NS(=O)(=O)c4cccc(Cl)c4Cl)c3F)c2n1 [Example 99] | −7% | 11%
3 | – | – | – | – | – | – | 30 to 300 nM | < 30 nM | 300 to 3000 nM | 30 to 300 nM | < 30 nM | 300 to 3000 nM | CC1(O)CCN(c2cccc3c2ncn3-c2ccc3ncnc(Nc4c(F)ccc(NS(=O)(=O)c5cccc(Cl)c5Cl)c4F)c3n2)CC1 [Example 524] | −5% | −13%
